Test results from article PMC4193996 (Journal of Experimental & Clinical Cancer Research : CR, 2014).

Legend:
[1] = target: T1, human recombinant M2 muscarinic receptor (Homo sapiens, UniProt P08172); test: M2 muscarinic receptor inhibition assay; format: binding; conditions: read-out: Muscarinic (M2) % inh @1 μM
T1 sequence (P08172 1-466): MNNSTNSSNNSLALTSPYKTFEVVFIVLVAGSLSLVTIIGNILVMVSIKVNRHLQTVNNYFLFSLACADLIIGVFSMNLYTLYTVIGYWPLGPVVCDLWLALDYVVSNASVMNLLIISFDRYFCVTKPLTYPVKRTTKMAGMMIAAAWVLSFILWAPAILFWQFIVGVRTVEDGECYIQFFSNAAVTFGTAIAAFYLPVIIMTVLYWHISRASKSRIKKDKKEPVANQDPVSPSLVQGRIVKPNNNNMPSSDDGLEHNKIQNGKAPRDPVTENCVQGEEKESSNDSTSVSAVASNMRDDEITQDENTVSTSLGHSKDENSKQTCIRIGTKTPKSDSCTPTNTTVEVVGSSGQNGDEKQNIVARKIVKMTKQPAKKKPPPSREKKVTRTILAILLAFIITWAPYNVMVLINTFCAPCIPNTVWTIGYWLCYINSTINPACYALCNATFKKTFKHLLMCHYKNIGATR
Method: (§1) hEGR study and the M2 and the β2 receptor inhibition assay were performed as previously reported.
(§2) The new G-quadruplex ligands were designed in an attempt to obtain molecules with improved toxicological and on-target profiles, but maintaining the same favorable chemical and pharmacological features of the lead compound 1. With the aim of selecting the best variants, a step by step comparative analysis of their off- and on-target properties was performed. Initially the new molecules were tested for their ability to interact with and inhibit the human recombinant β2 adrenergic and M2 muscarinic receptors, and to reduce the hERG tail current in a patch clamp assay. […] Therefore, we might expect that the new ligands would impair cardiac functionality to a lesser extent than the lead molecule does.

[2] = system: hairpin duplex, 5'-biotin-CGA3T3C(CT)2GA3T3CG (DNA, hairpin) CGAAATTTCCTCTGAAATTTCG; test: SPR
[3] = system: alternating hairpin duplex sequence 5'-biotin-CGA3T3C(CT)2GA3T3CG; test: SPR binding to duplex DNA
Method: (§3) Oligonucleotides 5’-biotin-d [AG3 (T2AG3)3] quadruplex and 5’-biotin-CGA3T3C(CT)2GA3T3CG were purchased from Midland Certified Reagent Company (Midland, TX). Purification of DNA, preparation of solutions, collection of data, and analysis of results were conducted according to methods adopted in an earlier study.
(§4) This technique takes advantage of the refractive index change elicits by the binding of the drug with the h-Tel quadruplex DNA sequence 5’-d[AGGG(TTAGGG)3]-3’ or an alternating hairpin duplex sequence immobilized on a sensor chip surface.

[4] = system: human colon cancer cell line HT-29; test: MTT proliferation assay, HT-29; format: cell-based; conditions: 96 hours
Method: (§5) Normal WI-38 diploid human lung fibroblasts and the human colorectal adenocarcinoma HT29 cells were obtained from American Type Culture Collection (Manassas, VA, USA). BJ fibroblasts expressing hTERT and SV40 early region (BJ-EHLT) were obtained as previously reported. Cells were grown in Dulbecco Modified Eagle Medium (D-MEM, Invitrogen Carlsbad, CA, USA) supplemented with 10% fetal calf serum, 2 mM L-glutamin and antibiotics.
(§6) MTT (3-(4,5-Dimethylthiazol-2-yl)-2,5-diphenyltetrazolium Bromide) assay was performed in treated and untreated cells for 96 hours. Cells were incubated with MTT solution (Sigma-Aldrich), and the purple formazan crystals were dissolved in isopropanol. Optical densities (OD) at 540 nm was determined on microplate reader.
(§7) Firstly, we investigated if they were able to efficiently promote growth inhibition of tumor cells without affecting the survival of normal cells in vitro. In Table 1 we report for each compound the concentration causing 50% of growth inhibition (GI50) calculated by performing a proliferation assay in the human colon cancer cell line HT-29 or in the human ‘normal’ lung WI-38 cells. […] On the basis of results described so far, we decided to exclude from the further analysis ligand 10 for its high value of hERG inhibition (95%) (Table 1).

hERG = hERG (Homo sapiens, UniProt Q12809); test: hERG tail current inhibition in a patch clamp assay; format: cell-based; conditions: read-out: hERG % inh @10 μM
Method: as §1, §2

[5] = system: h-Tel quadruplex DNA, 5'-biotin-d[AG3(T2AG3)3] (DNA, G4) AGGGTTAGGGTTAGGGTTAGGG; test: SPR
[6] = system: human 'normal' lung WI-38 cells; test: MTT proliferation assay, WI-38; format: cell-based; conditions: for Ratio PMX WI38/HT29: GI50 WI-38 / GI50 HT-29; for GI50: Homo sapiens, WI-38, MTT, 96 hours
Method: as §5, §6, §7

[7] = system: h-Tel quadruplex DNA sequence 5'-d[AGGG(TTAGGG)3]-3'; test: SPR binding to quadruplex DNA; set-up: species or system human; conditions: for Quadruplex/duplex ratio: quadruplex vs duplex affinity
Method: as §3, §4

BJ-EHLT fibroblasts [8] = test: γ-H2AX/TRF1 colocalization (TIFs, telomere uncapping); format: cell-based, human; conditions: for telomere dysfunction (TIF formation), in words / mean TIFs per nucleus: 24 hrs; for telomere dysfunction (TIF formation), in words: 0.1 and 0.5 μM
Method: (§8) Cells were fixed in 2% formaldehyde and permeabilized in 0.25% Triton X100 in PBS for 5 min at room temperature. For immunolabeling, cells were incubated with primary antibody, then washed in PBS and incubated with the secondary antibodies. The following primary antibodies were used: pAb and mAb anti-TRF1(Abcam Ltd.; Cambridge UK); mAb (Upstate, Lake Placid, NY) and pAb anti-γH2AX (Abcam); mAb anti-PCNA (Sigma Chemicals, Milano, Italy). The following secondary antibody were used: TRITC conjugated Goat anti Rabbit, FITC conjugated Goat anti Mouse (Jackson ImmunoResearch Europe Ltd., Suffolk, UK). Fluorescence signals were recorded by using a Leica DMIRE2 microscope equipped with a Leica DFC 350FX camera and elaborated by a Leica FW4000 deconvolution software (Leica, Solms, Germany). This system permits to focus single planes inside the cell generating 3D highresolution images. For quantitative analysis of γH2AX positivity, 200 cells on triplicate slices were scored. For TIFs analysis, in each nucleus a single plane was analyzed and at least 50 nuclei per sample were scored.
Unfortunately, we were not able to test compounds 4, 5 and the 0,5 μM dose of 3 as they were fluorescent in both red and green channels. […] To ascertain whether γ-H2AX was phosphorylated in response to dysfunctional telomeres, double immunofluorescence experiments were processed by confocal microscopy. We observed that some of the γ-H2AX foci induced by G4-ligands colocalized with TRF1, a good marker for interphase telomeres, forming the so-called telomere dysfunction-induced foci (TIFs) (Figure 2B).
Figure 2 DNA damage activation at telomeres. BJ-EHLT fibroblasts were treated for 24 hrs with compound 1 and the indicated ligands at the doses 0.1 (light-grey bars) and 0.5 μM (dark-grey bars). Cells were processed for immunofluorescence (IF) using antibodies against γ-H2AX and TRF1 to mark DNA damage and telomeres respectively. Percentages of γ-H2AX- (A) and TIF-positive (B) treated and untreated cells are reported in the histograms. (C) Mean number of TIFs in the indicated samples. Cells with four or more γ-H2AX/TRF1 foci were scored as TIF positive. Error bars indicate the standard deviation. (D) Representative images of IF of untreated and 1, 3, 6 and 8-treated BJ-EHLT cells. Enlarged views of TIFs are reported on the right of the merged images. The images were acquired with a Leica Deconvolution microscope (magnification 100x). (E) Cells treated as in (A) were processed for IF of γ-H2AX and PCNA to mark replicating cells. Percentage of γ-H2AX+/PCNA- or γ-H2AX+/PCNA + nuclei in the indicated samples are reported in the histograms.

[9] = target: human recombinant β2 adrenergic receptor (Homo sapiens, UniProt P07550); test: β2 adrenergic receptor inhibition assay; format: binding; conditions: read-out: β2 adrenergic % inh @1 μM
Method: as §1, §2

BJ-EHLT fibroblasts [10] = test: γ-H2AX/PCNA co-immunostaining (replication-dependent DNA damage); format: cell-based, human; conditions: 24 hrs
Method: as §8
Figure 2 DNA damage activation at telomeres. BJ-EHLT fibroblasts were treated for 24 hrs with compound 1 and the indicated ligands at the doses 0.1 (light-grey bars) and 0.5 μM (dark-grey bars). […] Cells with four or more γ-H2AX/TRF1 foci were scored as TIF positive. […]

Sequence of human recombinant β2 adrenergic receptor (P07550 whole entry): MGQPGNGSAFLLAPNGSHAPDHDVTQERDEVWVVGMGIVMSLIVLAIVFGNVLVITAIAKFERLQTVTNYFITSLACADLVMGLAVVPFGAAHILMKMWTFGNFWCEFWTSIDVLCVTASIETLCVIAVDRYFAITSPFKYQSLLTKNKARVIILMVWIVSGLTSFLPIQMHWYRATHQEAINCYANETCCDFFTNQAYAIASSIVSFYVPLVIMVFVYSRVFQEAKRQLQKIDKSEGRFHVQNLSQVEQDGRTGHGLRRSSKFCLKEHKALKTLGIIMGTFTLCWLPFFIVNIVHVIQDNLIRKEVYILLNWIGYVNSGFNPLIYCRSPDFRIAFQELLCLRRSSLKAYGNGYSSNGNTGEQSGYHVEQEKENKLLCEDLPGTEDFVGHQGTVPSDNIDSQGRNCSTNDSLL
Sequence of hERG (Q12809 whole entry): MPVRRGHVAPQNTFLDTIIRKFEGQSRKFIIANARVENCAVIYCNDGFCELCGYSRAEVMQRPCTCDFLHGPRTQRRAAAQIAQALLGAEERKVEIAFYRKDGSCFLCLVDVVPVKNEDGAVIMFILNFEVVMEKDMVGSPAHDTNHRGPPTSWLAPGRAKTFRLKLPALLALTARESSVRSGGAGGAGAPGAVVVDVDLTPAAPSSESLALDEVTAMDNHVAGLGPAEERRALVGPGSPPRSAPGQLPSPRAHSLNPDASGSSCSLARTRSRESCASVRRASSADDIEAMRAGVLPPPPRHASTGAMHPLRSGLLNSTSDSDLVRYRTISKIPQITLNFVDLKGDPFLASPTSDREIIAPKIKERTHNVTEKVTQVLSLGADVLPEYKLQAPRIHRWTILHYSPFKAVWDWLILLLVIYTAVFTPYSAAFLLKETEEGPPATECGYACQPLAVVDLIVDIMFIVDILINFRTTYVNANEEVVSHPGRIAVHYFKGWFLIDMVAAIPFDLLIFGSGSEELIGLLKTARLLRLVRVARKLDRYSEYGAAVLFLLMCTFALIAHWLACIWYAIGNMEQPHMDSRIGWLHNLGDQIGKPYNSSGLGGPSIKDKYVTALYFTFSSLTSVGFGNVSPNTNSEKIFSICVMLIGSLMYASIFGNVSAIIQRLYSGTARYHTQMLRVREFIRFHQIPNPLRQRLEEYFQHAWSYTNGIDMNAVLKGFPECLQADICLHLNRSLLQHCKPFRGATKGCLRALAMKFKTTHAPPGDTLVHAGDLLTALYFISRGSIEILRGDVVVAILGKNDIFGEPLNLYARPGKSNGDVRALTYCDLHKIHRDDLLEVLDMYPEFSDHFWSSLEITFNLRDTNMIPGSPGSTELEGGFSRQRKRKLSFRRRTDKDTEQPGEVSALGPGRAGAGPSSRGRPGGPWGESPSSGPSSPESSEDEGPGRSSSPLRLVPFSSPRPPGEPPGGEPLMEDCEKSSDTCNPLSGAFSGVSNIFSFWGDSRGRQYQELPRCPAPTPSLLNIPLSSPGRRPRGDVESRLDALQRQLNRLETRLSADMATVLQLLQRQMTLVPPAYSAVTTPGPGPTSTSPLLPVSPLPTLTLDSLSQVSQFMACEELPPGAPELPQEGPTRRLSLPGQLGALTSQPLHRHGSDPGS

Row | inhibition at 1 µM [1] | K [2] | Duplex DNA affinity K [3] | GI50 [4] | K [5] | Quadruplex DNA affinity K [7] | Quadruplex/duplex ratio [7] | inhibition at 1 µM [9] | Compound | inhibition at 10 µM (hERG) | Ratio PMX WI38/HT29 [6] | GI50 [6] | telomere dysfunction (TIF formation), in words (BJ-EHLT fibroblasts [8]) | mean TIFs per nucleus (BJ-EHLT fibroblasts [8]) | percentage of cells with more than four γ-H2AX/TRF1 colocalizations (TIF-positive) (BJ-EHLT fibroblasts [8]; 24 hrs, 0,5 μM) | γ-H2AX foci formation relative to PCNA status (BJ-EHLT fibroblasts [10]) | percentage of cells with more than four γ-H2AX/TRF1 colocalizations (TIF-positive) (BJ-EHLT fibroblasts [8]; 24 hrs, 0,1 μM)
1 | 77% | 700000 M⁻¹ | 0,7 x10^6 M^−1 | 260 nM | 1.47e+07 M⁻¹ | 14,7 x10^6 M^−1 | 21 | 8% | CN1c2ccccc2-c2c3c1cccc3c1ccc(NC(=O)CO)cc1[n+]2C [Compound 6] | 35% | 85,7 | 22300 nM |  | about seven | ~40% |  | 
2 |  | < 100000 M⁻¹ |  |  | 2.3e+07 M⁻¹ |  |  |  | CN1c2ccccc2-c2c3c1cccc3c1ccc(NC(=O)CCS(C)=O)cc1[n+]2C (stereo not drawn) |  |  |  |  |  |  |  | 
3 | 98% | 100000 M⁻¹ | 0,1 x10^6 M^−1 | 700 nM | 2.2e+07 M⁻¹ | 22,0 x10^6 M^−1 | 244,4 | 13% | CN1c2ccccc2-c2c3c1cccc3c1ccc(NC(=O)C3CC3)cc1[n+]2C [Compound 3] | 74% | 18,5 | 13000 nM |  | about seven |  |  | about 18%
4 | 98% | 200000 M⁻¹ | 0,2 x10^6 M^−1 | 100 nM | 4.2e+06 M⁻¹ | 4.2e+06 M⁻¹ | 21 | 11% | COC(=O)c1ccc2c(c1)c1cccc3c1c([n+]2C)-c1ccccc1N3C [Compound 2] | 41% | 31,1 | 3110 nM | did not cause significant telomere dysfunction |  |  |  | 

Further lines, the compound ahead of its results:

Row | Compound | inhibition at 1 µM [1] | K [2] | Duplex DNA affinity K [3] | GI50 [4] | K [5] | Quadruplex DNA affinity K [7] | Quadruplex/duplex ratio [7] | inhibition at 1 µM [9] | inhibition at 10 µM (hERG) | Ratio PMX WI38/HT29 [6] | GI50 [6] | telomere dysfunction (TIF formation), in words (BJ-EHLT fibroblasts [8]) | mean TIFs per nucleus (BJ-EHLT fibroblasts [8]) | percentage of cells with more than four γ-H2AX/TRF1 colocalizations (TIF-positive) (BJ-EHLT fibroblasts [8]; 24 hrs, 0,5 μM) | γ-H2AX foci formation relative to PCNA status (BJ-EHLT fibroblasts [10]) | percentage of cells with more than four γ-H2AX/TRF1 colocalizations (TIF-positive) (BJ-EHLT fibroblasts [8]; 24 hrs, 0,1 μM)
5 | C[n+]1c2c3c(cccc3c3ccccc31)Sc1ccccc1-2 [Compound 10] | 49% | < 100000 M⁻¹ | <0,1 x10^6 M^−1 | 130 nM | 1e+06 M⁻¹ | 1,0 x10^6 M^−1 | >10 |  | 95% | 47,5 | 6170 nM |  |  |  |  | 
6 | CN(C)CC#Cc1ccc2c3cccc4c3c([n+](C)c2c1)-c1ccccc1N4C [Compound 7] | 92% | 900000 M⁻¹ | 0,9 x10^6 M^−1 | 280 nM | 2.93e+07 M⁻¹ | 29,3 x10^6 M^−1 | 32,6 | 0% | 37% | 33,4 | 9360 nM | did not cause significant telomere dysfunction |  |  |  | 
7 | Cc1cc2c3c([n+](C)c4ccc(F)cc4c3c1)-c1cc(F)ccc1N2C [Compound 1, 3,11-difluoro-6,8,13-trimethyl-8H-quino [4,3,2-kl] acridinium methosulfate, reference compound] | 98% | 600000 M⁻¹ | 600000 M⁻¹ | 620 nM | 9e+06 M⁻¹ | 9e+06 M⁻¹ |  | 100% |  | 11,6 | 7200 nM |  |  |  | almost exclusively restricted to PCNA-positive | 
8 | CN1c2ccccc2-c2c3c1cccc3c1ccc(NC(=O)CC[S+](C)[O-])cc1[n+]2C (stereo not drawn) [Compound 5] | 93% |  | <0,1 x10^6 M^−1 | 1830 nM |  | 2.3e+07 M⁻¹ | >230 | 10% | 16% |  | > 30000 nM |  |  |  |  | 
9 | C[n+]1c2c3c(cccc3c3ccccc31)Oc1ccccc1-2 [Compound 9] | 24% | < 100000 M⁻¹ | <0,1 x10^6 M^−1 | 210 nM | 1.5e+06 M⁻¹ | 1,5 x10^6 M^−1 | >15 |  | 86% | 24,3 | 5110 nM | did not cause significant telomere dysfunction |  |  |  | 
10 | CN1c2ccccc2-c2c3c1cccc3c1ccc(CN)cc1[n+]2C [Compound 4] | 65% | 1.1e+06 M⁻¹ | 1,1 x10^6 M^−1 | 1630 nM | 7.4e+06 M⁻¹ | 7.4e+06 M⁻¹ | 6,7 | 1% | 15% | 10,6 | 17300 nM |  |  |  |  | 
